Earlier results in patent US12017989B2, “Controlled release pharmaceutical formulations” (United Therapeutics Corporation, priority 2013, dated 2024).

Conditions: continuous subcutaneous infusion using a pump; Wade et al., J Clin Pharmacol 2004

CCCCC[C@H](O)CC[C@@H]1[C@H]2Cc3cccc(OCC(=O)O)c3C[C@H]2C[C@H]1O [treprostinil]
peak-to-trough variation of concentration profile: 20-30%
